From patent US8697662B2, “Methods for treating Kaposi sarcoma” (PTC Therapeutics, Inc., priority 2009, dated 2014)
Marks after values point to notes of the source that are not given here.

Tests used:
[1] = tested on: Kaposi Sarcoma lesions; test: Patients with Kaposi Sarcoma: cutaneous lesion size and quantity; type: in vivo, human
Description: Subjects with HIV-associated KS may receive continuous daily treatment with a Compound being administered BID for up to 48 weeks. […] Response rate of HIV-associated KS to a Compound is an indicator of efficacy.
Compound Administration: Subjects may be administered a Compound at the following dose levels: 40 mg/dose BID, 80 mg/dose BID, and 100 mg/dose BID. A Compound may be orally administered each day on a BID schedule at approximately the same times each day. Ideally, doses should be taken at ˜12-hour intervals (e.g., at ˜7:00 AM and at ˜7:00 PM). If convenient for the subject, the drug may be taken during or within ˜30 minutes after a meal; however, administration with food is not required. Subjects may continue receiving repeated 4-week cycles of a Compound indefinitely or until termination. Compound administration may be terminated because of, e.g., tumor progression or other progression of KS, or a dose-limiting toxicity.
A medical history should be done within 21 days of administration of a Compound and may be done during the treatment course with a Compound (e.g., the first day of every 4 week cycle) and following such treatment. The medical history may include the following information: • 1. Previous HIV-related and non-HIV related diagnoses. • 2. […] For subjects with <50 total skin and oral lesions, all lesions should be evaluated for changes in number and characteristics. […]

[2] = tested on: hypoxia-inducible endogenous VEGF expression; test: Hypoxia-inducible endogenous VEGF expression ELISA in HeLa cells, dose-response EC50 (Table 3); type: cell-based; settings: Homo sapiens, hypoxic conditions (1% O2), VEGF ELISA of conditioned media
Description: The ability of the Compounds to modulate hypoxia-inducible endogenous VEGF expression may be analyzed as follows. VEGF protein levels may be monitored by an ELISA assay (R&D Systems). Briefly, HeLa cells may be cultured for 24-48 hours under hypoxic conditions (1% O2, 5% CO2, balanced with nitrogen) in the presence or absence of a Compound. The conditioned media may then be assayed by ELISA, and the concentration of VEGF calculated from the standard ELISA curve of each assay.
A dose-response analysis may be performed using the ELISA assay and conditions described above. The conditions for the dose-response ELISA are analogous to those described above. A series of, e.g., seven different concentrations may be analyzed. In parallel, a dose-response cytotoxicity assay may be performed using Cell Titer Glo (Promega) under the same conditions as the ELISA to ensure that the inhibition of VEGF expression was not due to the cytotoxicity.

[3] = tested on: LNCaP xenografts; test: Tumor growth inhibition in LNCaP prostate cancer xenografts; type: in vivo, athymic nude mice
Description: Experimental Design. The LNCaP cell line is derived from a lymph node metastasis.
Tumor size was measured by calipers at periodic intervals during the study. When the mean tumor size in a mouse exceeded 1500 mm^3, mice in that group were sacrificed and both tumor and plasma were assayed for pathologic VEGF concentration as described in Section 9.1.1.1.

[4] = tested on: normal human keratinocyte; test: ATP viability assay in keratinocytes; type: cell-based; settings: any concentration tested
Description: Experimental Design. Nontransformed normal human keratinocyte cell cultures were established under normoxic conditions (21% oxygen). […] At the completion of treatment, cells were assessed for viability with an ATP assay and conditioned media were evaluated for VEGF protein levels by ELISA (as described in Section 9.1.1.1).

[5] = ECG and blood pressure assessments in 7-day and 28-day dog toxicity studies; type: in vivo, beagle dogs
[6] = tested on: SY5Y xenografts; test: Tumor growth inhibition in subcutaneous SY5Y neuroblastoma xenografts; type: in vivo, athymic nude mice
Description: Experimental Design. SY5Y cells are derived from a human neuroblastoma, a childhood tumor arising in neural crest cells. SY5Y cells (1×10^7 cells/mouse) were implanted subcutaneously in male athymic nude mice.
Tumor size was measured by calipers at periodic intervals. When the average tumor size in a group exceeded 2000 mm^3, the mice in the group were sacrificed and excised tumors were assayed for intratumoral VEGF concentration as described in Section 9.1.1.1.

SMILES: COc1ccc(C2c3[nH]c4ccc(Cl)cc4c3CCN2C(=O)Oc2ccc(Cl)cc2)cc1 (racemic) [Compound #10]
- lesion size (in words) ([1]; patients with Kaposi Sarcoma (FIG. 34)): reduced
- reduction in the number of raised lesions ([1]; patients with Kaposi Sarcoma labeled PR (FIG. 34)): ≥ 50%
- EC50 [2]: < 8 nM
- time to tumor progression (time to reach ≧1000 mm^3) (in words) ([3]; 10 mg/kg M-W-F): prolonged
- intratumoral VEGF concentrations adjusted for tumor size (in words) ([3]; 10 mg/kg M-W-F, day of sacrifice): reduced
- Mean % Inhibition of Intratumoral VEGF vs Vehicle at Sacrifice ([3]; LNCaP xenografts in male nude mice, 10 mg/kg oral M-W-F, adjusted for tumor size): 51^d %
- toxicity (viability, ATP assay) [4]: No toxicity was observed
- QTc values ([5]; males, 60 mg/kg/day, 28-day study): comparable to controls
- ECG or blood pressure results ([5]; through 120 mg/kg/day for 7-days and through 60 mg/kg/day for 28-days, oral): did not have any toxicological effects
- Mean % Inhibition of Intratumoral VEGF vs Vehicle at Sacrifice ([6]; 50 mg/kg QD, 250 mg/kg per week (Table 18), oral 5 days per week): 96* %
- mean tumor size (in words) ([6]; through 15-days of dosing): essentially eliminated any increase in mean tumor size
